Results on 27 compounds are retold here after ChEMBL document CHEMBL3351620, “Structure-activity relationships and molecular modeling studies of novel arylpiperazinylalkyl 2-benzoxazolones and 2-benzothiazolones as 5-HT(7) and 5-HT(1A) receptor ligands” (Eur J Med Chem, 2014).

Structures are written as SMILES. pKi: −log10 of the molar value.

The target in experiment [1] is T1, 5-hydroxytryptamine receptor 1A (Homo sapiens, UniProt P08908).
T1 sequence (P08908 whole entry): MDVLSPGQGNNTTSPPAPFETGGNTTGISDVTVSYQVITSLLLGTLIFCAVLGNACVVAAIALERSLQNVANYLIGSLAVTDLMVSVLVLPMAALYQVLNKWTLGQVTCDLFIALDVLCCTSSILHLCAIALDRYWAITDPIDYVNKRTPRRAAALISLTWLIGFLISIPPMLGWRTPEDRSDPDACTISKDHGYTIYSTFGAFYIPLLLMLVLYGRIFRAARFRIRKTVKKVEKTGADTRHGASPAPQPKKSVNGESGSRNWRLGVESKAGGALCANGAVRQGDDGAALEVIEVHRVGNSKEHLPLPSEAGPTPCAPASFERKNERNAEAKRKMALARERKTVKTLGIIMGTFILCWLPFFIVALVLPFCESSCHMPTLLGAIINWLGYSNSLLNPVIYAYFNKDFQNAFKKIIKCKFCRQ
The experiment is described as follows: Displacement of [3H]8-OH-DPAT from human 5-HT1A receptor transfected in […] cells after 30 mins by liquid scintillation spectrometry. It counts as cell-based. A general note: Displacement assays read how much labelled ligand stays bound in the presence of the test substance.

For experiment [2], the target named is T2, 5-hydroxytryptamine receptor 7 (Homo sapiens, UniProt P34969). The experiment is described as follows: Displacement of [3H]5-HT from human 5HT7 receptor transfected in […] cells after 30 mins by liquid scintillation spectrometry. It counts as cell-based.
For a further experiment, the species on record is Homo sapiens. As to the kind of experiment: Selectivity ratio of Ki for human 5HT1A receptor to Ki for human 5HT7 receptor.
In experiment [3] the target is T2, 5-hydroxytryptamine receptor 7. As to the kind of experiment: Displacement of [3H]5-HT from human 5HT7 receptor transfected in […] cells ay 1 uM after 30 mins by liquid scintillation spectrometry. It counts as cell-based.

T2 sequence (P34969 whole entry): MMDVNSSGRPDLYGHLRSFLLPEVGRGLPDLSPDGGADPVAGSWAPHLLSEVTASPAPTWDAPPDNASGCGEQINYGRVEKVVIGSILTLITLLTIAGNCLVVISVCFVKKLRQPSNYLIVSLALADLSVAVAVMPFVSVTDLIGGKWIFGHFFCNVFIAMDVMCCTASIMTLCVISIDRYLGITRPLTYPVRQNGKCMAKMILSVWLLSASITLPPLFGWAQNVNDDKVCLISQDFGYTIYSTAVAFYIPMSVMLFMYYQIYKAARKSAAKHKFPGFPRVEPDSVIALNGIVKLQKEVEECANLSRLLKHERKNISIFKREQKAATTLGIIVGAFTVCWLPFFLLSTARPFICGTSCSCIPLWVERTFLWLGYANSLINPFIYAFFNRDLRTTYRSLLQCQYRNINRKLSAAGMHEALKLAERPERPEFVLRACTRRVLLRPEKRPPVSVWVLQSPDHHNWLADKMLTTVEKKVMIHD

Consider `COc1ccccc1N1CCN(CCCCCCn2c(=O)sc3ccccc32)CC1`, for which the pKi (commonly the Ki on a negative log10 scale, so that one unit is a factor of ten) was 9.37 in experiment [1] and 8.54 in experiment [2]. Moreover, in the experiment listed under Homo sapiens, the Ratio Ki came to 0.14.

For the compound `O=C1Cc2ccccc2N1CCCCN1CCN(c2cccc3ccccc23)CC1`, the figures for the pKi in experiment [1] and in experiment [2] were 7.33 and 7.66, respectively.

In the case of `O=c1sc2ccccc2n1CCCCN1CCc2ccccc2C1`, the pKi in experiment [1] is 7.13; in experiment [2], 8.55. The Ratio Ki in the experiment listed under Homo sapiens was 26.4.

As to `O=C1Nc2cc(F)ccc2C1CCCCN1CCN(c2cccc(Cl)c2)CC1` (stereo not drawn), the figures for the pKi in experiment [1] and in experiment [2] were 8.17 and 6.93, respectively.

Take `COc1ccccc1N1CCN(CCCCCCn2c(=O)oc3ccccc32)CC1`: the pKi in experiment [1] is 8.89; in experiment [2], 7.93. The Ratio Ki in the experiment listed under Homo sapiens amounted to 0.11.

In the case of `O=c1oc2ccccc2n1CCCCCCN1CCN(c2ccccc2)CC1`, the pKi in experiment [1] was 8.40; in experiment [2], 7.85. Besides, in the experiment filed under Homo sapiens, the Ratio Ki turned out to be 0.28.

Regarding `COc1ccccc1N1CCN(CCCCCCCn2c(=O)oc3ccccc32)CC1`, the pKi in experiment [1] is 9.72; in experiment [2], 8.11. In addition, the Ratio Ki in the experiment filed under Homo sapiens is 0.02.

In the case of `O=c1sc2ccccc2n1CCCCCN1CCN(c2ccccc2)CC1`, the values for the pKi in experiment [1] and in experiment [2] were 7.02 and 7.70, respectively. Moreover, the Ratio Ki in the experiment listed under Homo sapiens amounted to 4.78.

For the compound `O=c1oc2ccccc2n1CCCCCN1CCN(c2ccccc2)CC1`, the pKi in experiment [1] is 7.72; in experiment [2], 7.24. Moreover, the Ratio Ki in the experiment listed under Homo sapiens worked out at 0.33.

Take `COc1ccccc1N1CCN(CCCn2c(=O)[nH]c3ccccc32)CC1`: the pKi was 7.40 in experiment [1] and 8.47 in experiment [2].

For `O=c1oc2ccccc2n1CCCCN1CCN(c2ccccc2)CC1`, the pKi in experiment [1] was 7.04; in experiment [2], 7.58. In the experiment listed under Homo sapiens, the Ratio Ki was determined as 3.43.

In the case of `O=c1sc2ccccc2n1CCCCN1CCN(c2cccc(Cl)c2)CC1`, the pKi in experiment [1] was 8.21; in experiment [2], 8.76. The Ratio Ki in the experiment filed under Homo sapiens turned out to be 3.56.

Turning to `O=C1c2cccc3cccc(c23)N1CCCCCN1CCN(c2ccccc2)CC1`, in experiment [3], the inhibition – broadly, the drop in the measured response relative to a control, in per cent – came out at 92%.

Consider `O=c1sc2ccccc2n1CCCCCCCN1CCN(c2ccccc2)CC1`, for which the pKi in experiment [1] was 9.57; in experiment [2], 8.12. Moreover, the Ratio Ki in the experiment listed under Homo sapiens came out at 0.03.

As for `COc1ccccc1N1CCN(CCCCn2c(=O)sc3ccccc32)CC1`, the pKi in experiment [1] is 7.61; in experiment [2], 8.11. Also, the Ratio Ki in the experiment listed under Homo sapiens came to 3.16.

As for `O=c1sc2ccccc2n1CCCCCCN1CCN(c2ccccc2)CC1`, the pKi in experiment [1] is 9.04; in experiment [2], 8.53. The Ratio Ki in the experiment filed under Homo sapiens came to 0.3.

Compound `O=c1[nH]c2ccccc2n1CCCCCN1CCN(c2ccc(Cl)cc2)CC1` showed a pKi in experiment [1] of 6.34.

As to `COc1ccccc1N1CCN(CCCCCn2c(=O)sc3ccccc32)CC1`, the pKi in experiment [1] was 8.15; in experiment [2] it was 8.29. The Ratio Ki in the experiment listed under Homo sapiens was 1.38.

For `COc1ccccc1N1CCN(CCCCCn2c(=O)oc3ccccc32)CC1`, the pKi in experiment [1] is 7.93; in experiment [2], 8.23. In addition, in the experiment listed under Homo sapiens, the Ratio Ki worked out at 2.01.

Take `O=c1sc2ccccc2n1CCCCN1CCN(c2ccccc2)CC1`: the results for the pKi in experiment [1] and in experiment [2] were 6.04 and 7.44, respectively. Further, the Ratio Ki in the experiment listed under Homo sapiens worked out at 25.

Turning to `COc1ccccc1N1CCN(CCCCCCCn2c(=O)sc3ccccc32)CC1`, the results for the pKi in experiment [1] and in experiment [2] were 9.68 and 8.07, respectively. For the same compound, in the experiment listed under Homo sapiens, the Ratio Ki was determined as 0.02.

In the case of `O=c1sc2ccccc2n1CCCCN1CCN(c2ccc(Cl)cc2)CC1`, the pKi in experiment [1] is 7.08; in experiment [2], 7.33. The Ratio Ki in the experiment filed under Homo sapiens came out at 1.77.

Turning to `COc1ccccc1N1CCN(CCCCC(=O)NC2CCCc3ccccc32)CC1` (stereo not drawn), the pKi was 8.22 in experiment [1] and 8.05 in experiment [2].

Turning to `O=c1oc2ccccc2n1CCCCCCCN1CCN(c2ccccc2)CC1`, the results for the pKi in experiment [1] and in experiment [2] were 7.53 and 7.34, respectively. Further, the Ratio Ki in the experiment listed under Homo sapiens is 0.65.

`O=c1sc2ccccc2n1CCCCN1CCN(Cc2ccccc2)CC1`: the pKi in experiment [1] was 6.16; in experiment [2], 7.38. Moreover, the Ratio Ki in the experiment filed under Homo sapiens was 16.6.

As to `COc1ccccc1N1CCN(CCCCn2c(=O)oc3ccccc32)CC1`, the figures for the pKi in experiment [1] and in experiment [2] were 7.72 and 7.99, respectively. The Ratio Ki in the experiment listed under Homo sapiens turned out to be 1.85.

As to `Cc1ccccc1N1CCN(CCCCn2c(=O)sc3ccccc32)CC1`, the pKi is 7.98 in experiment [1] and 9.00 in experiment [2]. For the same compound, in the experiment filed under Homo sapiens, the Ratio Ki is 10.5.
